Earlier results on 2 compounds are cited in US20250025420A1, “TERNARY CO-AMORPHOUS FORMS OF DRUGS, PROTEINS, AND WATER-SOLUBLE POLYMERS” (Zerion Pharma APS, priority 2021, published 2025).

For the series the following is noted: stated in Materials.

For `C=C(C)[C@@H]1CCC(C)=C[C@H]1c1c(O)cc(CCCCC)cc1O` [Cannabidiol], the pKa is listed as 9.7.

`C=CC(=O)N1CCC[C@@H](n2nc(-c3ccc(Oc4ccccc4)cc3)c3c(N)ncnc32)C1` [Ibrutinib]: the pKa was 3.74.
